Experimental data reported in patent US20030181446A1, “Novel N-acylated heterocycles” (Recordati S.A., priority 2001, published 2003).

Assays:
[1] = target: T1, human 5HT1A-serotonergic receptor (Homo sapiens, UniProt P08908); experiment: Radioligand binding to recombinant 5-HT1A receptors; settings: 1 nM [3H]8-OH-DPAT, membranes of HeLa cells transfected with human 5HT1A receptor; Ki from IC50 by Cheng & Prusoff; read-out: Binding affinity for 5HT1A receptors, Ki
T1 construct: expressed in transfected cells; cell membranes
T1 sequence (P08908 1-422): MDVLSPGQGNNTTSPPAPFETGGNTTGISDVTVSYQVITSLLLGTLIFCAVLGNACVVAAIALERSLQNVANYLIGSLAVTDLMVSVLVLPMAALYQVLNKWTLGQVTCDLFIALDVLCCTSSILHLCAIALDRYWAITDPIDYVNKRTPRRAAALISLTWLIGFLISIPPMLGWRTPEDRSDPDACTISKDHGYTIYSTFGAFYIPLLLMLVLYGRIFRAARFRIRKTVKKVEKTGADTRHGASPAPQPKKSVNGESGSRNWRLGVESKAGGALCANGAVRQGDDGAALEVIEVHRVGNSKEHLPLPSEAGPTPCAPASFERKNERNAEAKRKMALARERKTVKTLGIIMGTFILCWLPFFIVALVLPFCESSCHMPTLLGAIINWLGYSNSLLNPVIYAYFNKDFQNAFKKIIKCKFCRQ
Description: Genomic clone G-21 coding for the human 5HT1A-serotonergic receptor was stably transfected in a human cell line (HeLa). HeLa cells were grown as monolayers in Dulbecco's modified Eagle medium (DMEM), containing 10% foetal bovine serum, gentamicin ([…]) and 5% carbon dioxide, at 37° C. The cells were detached from the growth flask at 95% confluence by a cell scraper and were lysed in cold 5 mM Tris and 5 mM EDTA buffer (pH 7.4). The homogenates were centrifuged at 40000×g×20 minutes and the pellets were resuspended in a small volume of cold 5 mM Tris and 5 mM EDTA buffer (pH 7.4) and immediately frozen and stored at −70° C. until use. On the day of experiment, the cell membranes were resuspended in incubation buffer: 50 mM Tris HCl (pH 7.4), 2.5 mM MgCl2, […] (Fargin et al., Nature 335, 358-360, 1988). […] Non-specific binding was determined in the presence of 10 μM 5-HT. […]
The affinity of the tested compounds was evaluated as inhibition of specific binding of the radioligand to 5-HT1A receptors (IC50) by using the non-linear curve-fitting program Allfit (De Lean et al., Am. J. Physiol. 235, E97-E102 (1978). The IC50 value was converted to an affinity constant (Ki) by the equation of Cheng & Prusoff (Cheng Y. C., Prusoff W. H., Biochem. Pharmacol. 22, 3099-3108 (1973)).

[2] = system: bladder volume capacity (BVC) and micturition pressure (MP); experiment: Effect on cystometric parameters in conscious rats after oral administration; type: in vivo, rat; settings: 3 mg/kg p.o., 1-5 h after treatment, versus vehicle
Description: Male Sprague-Dawley rats [Crl: CD° (SD) BR] of 300-400 g supplied by Charles River Italia were used. The animals were housed with free access to food and water and maintained on a forced 12-hour-light/12-hour-dark cycle at 22-24° C. of temperature, except during the experiment. To quantify urodynamic parameters in conscious rats, cystometrographic studies were performed according to the procedure previously reported (Guarneri et al., Pharmacol. Res. 24: 175, 1991).
Briefly, the rats were anaesthetised by intraperitoneal administration of 3 ml/kg of Equithensin solution (pentobarbital 30 mg/kg and chloral hydrate 125 mg/kg) and placed in a supine position. An approximately-10-mm-long midline incision was made in the shaved and cleaned abdominal wall. The urinary bladder was gently freed from adhering tissues, emptied and then cannulated via an incision in the bladder body, using a polyethylene cannula (0.58-mm internal diameter, 0.96-mm external diameter) which was permanently sutured with silk thread. The cannula was exteriorised through a subcutaneous tunnel in the retroscapular area, where it was connected to a plastic adapter in order to avoid the risk of removal by the animal. For drug testing, the rats were utilised one day after implantation.
On the day of the experiment, the rats were placed in modified Bollman cages, i.e. restraining cages that were large enough to permit the rats to adopt a normal crouched posture, but narrow enough to prevent turning around. […] The intraluminal-pressure signal during infusion of saline into the bladder was continuously recorded on a polygraph (Rectigraph-8K San-ei with BM614/2 amplifier from Biomedica Mangoni) and, from the cystometrogram, two urodynamic parameters were evaluated: bladder volume capacity (BVC) and micturition pressure (MP). […] Basal BVC and MP values were evaluated as mean of the values observed in the cystometrograms recorded in an initial period of 30-60 minutes. […] The bladder infusion restarted and changes in BVC and MP were evaluated from the mean values obtained in the cystometrograms observed during 1, 2, 3, 4 and 5 hours after treatment. […]
All data were expressed as mean±standard error. Time-course data were analysed by S.A.S./STAT software, version 6.12. The difference between vehicle and active-treatment effect was evaluated by: General Linear Model Procedure—Repeated Measures Analysis of Variance: Univariate test of Hypotheses for within Subject Effects—Analysis of Variance of Contrast Variables. […]

[3] = system: rhythmic bladder-voiding contractions; experiment: Effects on rhythmic bladder-voiding contractions induced by bladder filling in anaesthetised rats; type: in vivo, rat; settings: intravenous administration
Description: Female Sprague-Dawley rats weighing 225-275 g (Crl: CDo Br, Charles River Italia) were used. The animals were housed with free access to food and water and maintained on a forced 12-hour alternating light-dark cycle at 22-24° C. for at least one week, except during the experiment. The activity on rhythmic bladder voiding contractions was evaluated according to the method of Dray (Dray J., Pharmacol. Methods, 13:157, 1985), with some modifications as in Guarneri (Guarneri, Pharmacol. Res. 27:173, 1993). Briefly, the rats were anaesthetised by subcutaneous injection of 1.25 g/kg (5 ml/kg) urethane, after which the urinary bladder was catheterised via the urethra using PE 50 polyethylene tubing filled with physiological saline. […]
From the cystometrogram, the number of contractions recorded 15 minutes before (basal values) and after treatment, as well as the mean amplitude of these contractions (mean height of the peaks in mmHg), was evaluated.
Since most compounds produced an effect that was relatively rapid in onset and led to a complete cessation of bladder contractions, bioactivity was conveniently estimated by measuring the duration of bladder quiescence (i.e. the length of the time during which no contractions occurred). The number of tested animals showing a reduction in the number of contractions higher than 30% of that observed in the basal period was recorded too. […]

Compound | Ki [1] [µM] | bladder volume capacity (BVC) change (in words) [2] | micturition pressure (MP) change (in words) [2] | cessation of bladder contractions (in words) [3] | effect on amplitude of the contractions (in words) [3]
CC(C)Oc1cc(Cl)ccc1N1CCN(CC2CCc3ccccc3N2C(=O)C2CCCCC2)CC1 (centres unmarked) [Example 60A] | 0.0101 | – | – | – | –
CCN(CC)CC#CCOC(=O)C(O)(c1ccccc1)C1CCCCC1 (centres unmarked) [Oxybutynin, oxybutynin] | – | slight, not-significant increase of BVC | greatly reduced the micturition pressure values | does not cause cessation of bladder contractions | only decreased the amplitude of the contractions in a dose-related manner
1-(2-Ethylbutanoyl-1,2,3,4-tetrahydroquinoline-2-ylmethyl)-4-(4-indolyl)-piperazine [Example 24A] | 0.0129 | – | – | – | –
O=C(C1CCCCC1)N1c2ccccc2CCC1CN1CCN(c2cccc3[nH]ccc23)CC1 (racemic) [Example 1, 1-(1-Cyclohexanecarbonyl-1,2,3,4-tetrahydroquinoline-2-ylmethyl)-4-(4-indolyl)piperazine] | – | effective in increasing the bladder volume capacity | without significant effects on micturition pressure | – | –
